In patent US10227358B2, “Hydroxyester derivatives, a process for their preparation and pharmaceutical compositions containing them” (LES LABORATOIRES SERVIER, priority 2015, dated 2019):

Target: Mcl-1 protein (UniProtKB Q07820) (Homo sapiens, UniProt Q07820)
Test: Inhibition of Mcl-1 by the fluorescence polarisation technique
Format: binding
Conditions: fluorescein labelled ligand 1 nM, Mcl-1 protein 5 nM, ~2 hours at room temperature; read-out: IC50 (μM) Mcl-1 FP
Procedure: The relative binding potency of each compound was determined via Fluorescence Polarisation (FP). The method utilised a Fluorescein labelled ligand (Fluorescein-βAla-Ahx-A-REIGAQLRRMADDLNAQY-OH; mw 2,765) which binds to the Mcl-1 protein (such that Mcl-1 corresponds to the UniProtKB® primary accession number: Q07820) leading to an increased anisotropy measured in milli-polarisation (mP) units using a reader. The addition of a compound which binds competitively to the same site as the ligand will result in a greater proportion of unbound ligand in the system indicated by a decrease in mP units.
An 11 point serial dilution of each compound was prepared in DMSO and 2 μl transferred into flat bottomed, low binding, 384-well plate (final DMSO concentration 5%). 38 μl of buffer (10 mM 4-(2-hydroxyethyl)-1-piperazineethanesulfonic acid [HEPES], 150 mM NaCl, 0.05% Tween 20, pH 7.4), containing the Fluorescein labelled ligand (final concentration 1 nM) and Mcl-1 protein (final concentration 5 nM) was then added.
Assay plates were incubated ˜2 hours at room temperature before FP was measured on a […] Synergy2 reader (Ex. 528 nm, Em. 640 nm, Cut off 510 nm) and mP units calculated. The binding of increasing doses of test compound was expressed as a percentage reduction in mP compared to a window established between ‘5% DMSO only’ and ‘100% inhibition’ controls. 11-point dose response curves were plotted with XL-Fit software using a 4-Parameter Logistic Model (Sigmoidal Dose-Response Model) and the inhibitory concentrations that gave a 50% reduction in mP (IC50) were determined.

Chain of Mcl-1 protein (Q07820 whole entry): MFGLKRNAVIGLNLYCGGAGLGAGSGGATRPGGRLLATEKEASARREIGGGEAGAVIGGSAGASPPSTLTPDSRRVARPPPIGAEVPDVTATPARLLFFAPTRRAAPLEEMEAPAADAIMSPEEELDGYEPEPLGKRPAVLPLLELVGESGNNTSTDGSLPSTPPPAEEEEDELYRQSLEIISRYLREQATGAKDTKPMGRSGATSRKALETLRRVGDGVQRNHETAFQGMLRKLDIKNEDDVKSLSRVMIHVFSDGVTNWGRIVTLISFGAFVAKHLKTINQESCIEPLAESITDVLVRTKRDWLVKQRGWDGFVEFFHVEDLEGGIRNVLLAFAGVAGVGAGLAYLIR

| Compound | IC50 [µM] |
| --- | --- |
| COc1ccccc1-c1nccc(COc2ccccc2CC(Oc2ncnc3sc(-c4ccc(F)cc4)c(-c4ccc(OCCN5CCN(C)CC5)c(Cl)c4C)c23)C(=O)OC(C)OC(=O)OC(C)(C)C)n1 [Example 4, 1-[(tert-butoxycarbonyl)oxy]ethyl (2R)-2-{[(5Sa)-5-{3-chloro-2-methyl-4-[2-(4-methylpiperazin-1-yl)ethoxy]phenyl}-6-(4-fluorophenyl)thieno[2,3-d]pyrimidin-4-yl]oxy}-3-(2-{[2-(2-methoxyphenyl)pyrimidin-4-yl]methoxy}phenyl)propanoate] | 0.959 |
| COc1ccccc1-c1nccc(COc2ccccc2CC(Oc2ncnc3sc(-c4ccc(F)cc4)c(-c4ccc(OCCN5CCN(C)CC5)c(Cl)c4C)c23)C(=O)OC(C)OC(=O)N2CCOCC2)n1 [Example 9, 1-{[(2R)-2-{[(5Sa)-5-{3-chloro-2-methyl-4-[2-(4-methylpiperazin-1-yl)ethoxy]phenyl}-6-(4-fluorophenyl)thieno[2,3-d]pyrimidin-4-yl]oxy}-3-(2-{[2-(2-methoxyphenyl)pyrimidin-4-yl]methoxy}phenyl)propanoyl]oxy}ethyl morpholine-4-carboxylate] | 0.52 |
| COc1ccccc1-c1nccc(COc2ccccc2CC(Oc2ncnc3sc(-c4ccc(F)cc4)c(-c4ccc(OCCN5CCN(C)CC5)c(Cl)c4C)c23)C(=O)OC(C)OC(=O)OC2CCCC2)n1 [Example 5, 1-{[(cyclopentyloxy)carbonyl]oxy}ethyl (2R)-2-{[(5Sa)-5-{3-chloro-2-methyl-4-[2-(4-methylpiperazin-1-yl)ethoxy]phenyl}-6-(4-fluorophenyl)thieno[2,3-d]pyrimidin-4-yl]oxy}-3-(2-{[2-(2-methoxyphenyl)pyrimidin-4-yl]methoxy}phenyl)propanoate] | 0.37 |
| CCCCCCCCOC(=O)OC(C)OC(=O)C(Cc1ccccc1OCc1ccnc(-c2ccccc2OC)n1)Oc1ncnc2sc(-c3ccc(F)cc3)c(-c3ccc(OCCN4CCN(C)CC4)c(Cl)c3C)c12 [Example 6, 1-{[(octyloxy)carbonyl]oxy}ethyl (2R)-2-{[(5Sa)-5-{3-chloro-2-methyl-4-[2-(4-methylpiperazin-1-yl)ethoxy]phenyl}-6-(4-fluorophenyl)thieno[2,3-d]pyrimidin-4-yl]oxy}-3-(2-{[2-(2-methoxyphenyl)pyrimidin-4-yl]methoxy}phenyl)propanoate] | 0.51 |
| COC(=O)OC(C)OC(=O)C(Cc1ccccc1OCc1ccnc(-c2ccccc2OC)n1)Oc1ncnc2sc(-c3ccc(F)cc3)c(-c3ccc(OCCN4CCN(C)CC4)c(Cl)c3C)c12 [Example 1, 1-[(methoxycarbonyl)oxy]ethyl (2R)-2-{[(5Sa)-5-{3-chloro-2-methyl-4-[2-(4-methylpiperazin-1-yl)ethoxy]phenyl}-6-(4-fluorophenyl)thieno[2,3-d]pyrimidin-4-yl]oxy}-3-(2-{[2-(2-methoxyphenyl)pyrimidin-4-yl]methoxy}phenyl)propanoate] | 0.037 |

Continued, values first:

| IC50 [µM] | Compound |
| --- | --- |
| 0.0032 | COc1ccccc1-c1nccc(COc2ccccc2CC(Oc2ncnc3sc(-c4ccc(F)cc4)c(-c4ccc(OCCN5CCN(C)CC5)c(Cl)c4C)c23)C(=O)OCOP(=O)(O)O)n1 [Example 13, (phosphonooxy)methyl (2R)-2-{[(5Sa)-5-{3-chloro-2-methyl-4-[2-(4-methylpiperazin-1-yl)ethoxy]phenyl}-6-(4-fluorophenyl)thieno[2,3-d]pyrimidin-4-yl]oxy}-3-(2-{[2-(2-methoxyphenyl)pyrimidin-4-yl]methoxy}phenyl)propanoate] |
| 0.361 | CCOC(=O)OC(C)OC(=O)C(Cc1ccccc1OCc1ccnc(-c2ccccc2OC)n1)Oc1ncnc2sc(-c3ccc(F)cc3)c(-c3ccc(OCCN4CCN(C)CC4)c(Cl)c3C)c12 [Example 2, 1-[(ethoxycarbonyl)oxy]ethyl (2R)-2-{[(5Sa)-5-{3-chloro-2-methyl-4-[2-(4-methylpiperazin-1-yl)ethoxy]phenyl}-6-(4-fluorophenyl)thieno[2,3-d]pyrimidin-4-yl]oxy}-3-(2-{[2-(2-methoxyphenyl)pyrimidin-4-yl]methoxy}phenyl)propanoate] |
